# How the values were obtained:
# Human CD73 = molecular target: T1, Human CD73 (Homo sapiens, UniProt P21589); assay: CD73 Enzyme Assay; format: biochemical; conditions: 0.25 nM hCD73, 25 μM AMP, kinetic read at 360 nm; read-out: CD73 Enzyme Assay IC50
# T1 construct: purchased R&D Systems; host or cells: CHO cells
# T1 sequence (P21589 27-549): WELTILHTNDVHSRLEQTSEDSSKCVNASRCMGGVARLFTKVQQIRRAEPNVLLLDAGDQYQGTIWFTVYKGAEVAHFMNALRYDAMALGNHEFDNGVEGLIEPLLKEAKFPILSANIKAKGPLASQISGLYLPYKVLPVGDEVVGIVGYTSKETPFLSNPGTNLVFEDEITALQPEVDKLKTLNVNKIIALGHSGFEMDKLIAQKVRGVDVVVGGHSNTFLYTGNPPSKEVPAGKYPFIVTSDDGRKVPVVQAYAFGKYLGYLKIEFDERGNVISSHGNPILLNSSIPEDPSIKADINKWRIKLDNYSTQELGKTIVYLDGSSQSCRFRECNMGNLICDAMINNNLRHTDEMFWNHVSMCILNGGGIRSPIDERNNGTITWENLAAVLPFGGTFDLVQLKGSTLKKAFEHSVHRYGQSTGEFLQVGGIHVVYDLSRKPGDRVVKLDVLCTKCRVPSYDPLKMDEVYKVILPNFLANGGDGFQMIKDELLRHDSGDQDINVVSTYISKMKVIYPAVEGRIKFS
# [1] = molecular target: T2, CD73 on U138 human neuroglioma cells (Homo sapiens, UniProt P21589); assay: CD73 Cell-Based Assay; conditions: U138 cells, AMP substrate, 2 hours at 37° C., inorganic phosphate by malachite green
# T2 construct: U138 cells were obtained from ATCC and cultured in DMEM with 10% FBS; host or cells: U138 human neuroglioma cells
# T2 sequence (P21589 27-549): T1 sequence (P21589 27-549)
# How it was run: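 Whole U138 cells washed free of phosphate were incubated with 200 μM AMP (mixture concentration before equal-volume addition) plus compound in HEPES-buffered saline, pH 7.4, for 2 h at 37 °C, 5% CO2. Adenosine-forming activity read as inorganic phosphate released into supernatant by malachite green.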
IC50 (Human CD73),IC50 [1],Structure (SMILES)
< 10 nM,10 to 100 nM,"C[C@H](Nc1nc(Cl)nc2c1ccn2[C@@H]1O[C@H](COCP(=O)(O)O)[C@@H](O)[C@H]1O)c1cccc(F)c1 [Compound 74, [(2R,3S,4R,5R)-5-[2-chloro-4-[[(1S)-1-(3-fluorophenyl)ethyl]-amino]pyrrolo[2,3-d]-pyrimidin-7-yl]-3,4-dihydroxy-tetrahydro-furan-2-yl]methoxy-methylphosphonic acid]"
10 to 100 nM,10 to 100 nM,"C[C@H]1CCCN1c1nc(Cl)nc2c1ccn2[C@@H]1O[C@H](COCP(=O)(O)O)[C@@H](O)[C@H]1O [Compound 284, [(2R,3S,4R,5R)-5-[2-chloro-4-[(2S)-2-methylpyrrolidin-1-yl]pyrrolo[2,3-d]-pyrimidin-7-yl]-3,4-dihydroxy-tetrahydro-furan-2-yl]methoxy-methylphosphonic acid]"
< 10 nM,< 10 nM,"O=P(O)(O)COC[C@H]1O[C@@H](n2ccc3c(NC4CCCC4)nc(Cl)nc32)[C@H](O)[C@@H]1O [Compound 70, [(2R,3S,4R,5R)-5-[2-chloro-4-(cyclopentylamino)pyrrolo[2,3-d]pyrimidin-7-yl]-3,4-dihydroxy-tetrahydrofuran-2-yl]methoxymethylphosphonic acid]"
10 to 100 nM,10 to 100 nM,"C[C@@H](Nc1nc(C#N)nc2c1ccn2[C@@H]1O[C@H](COCP(=O)(O)O)[C@@H](O)[C@H]1O)c1ccc(C#N)cc1 [Compound 95, [(2R,3S,4R,5R)-5-[2-cyano-4-[[(1R)-1-(4-cyanophenyl)ethyl]-amino]pyrrolo[2,3-d]-pyrimidin-7-yl]-3,4-dihydroxy-tetrahydro-furan-2-yl]methoxy-methylphosphonic acid]"
< 10 nM,< 10 nM,"CC[C@H](Nc1nc(Cl)nc2c1ccn2[C@@H]1O[C@H](COCP(=O)(O)O)[C@@H](O)[C@H]1O)c1ccccc1 [Compound 84, [(2R,3S,4R,5R)-5-[2-chloro-4-[[(1S)-1-phenylpropyl]amino]-pyrrolo[2,3-d]-pyrimidin-7-yl]-3,4-dihydroxy-tetrahydro-furan-2-yl]methoxy-methylphosphonic acid]"
10 to 100 nM,< 10 nM,CC(C)[C@@H](Nc1nc(Cl)nc2c1ccn2[C@@H]1O[C@H](COCP(=O)(O)O)[C@@H](O)[C@H]1O)c1ccccc1 [Compound 78]
10 to 100 nM,< 10 nM,"C[C@H](Nc1nc(C#N)nc2c1ccn2[C@@H]1O[C@H](COCP(=O)(O)O)[C@@H](O)[C@H]1O)c1ccc(C(F)(F)F)cc1 [Compound 147, [(2R,3S,4R,5R)-5-[2-cyano-4-[[(1S)-1-[4-(trifluoromethyl)-phenyl]ethyl]amino]-pyrrolo[2,3-d]-pyrimidin-7-yl]-3,4-dihydroxy-tetrahydro-furan-2-yl]methoxy-methylphosphonic acid]"
< 10 nM,< 10 nM,"O=P(O)(O)COC[C@H]1O[C@@H](n2ccc3c(NC4CCCCC4)nc(Cl)nc32)[C@H](O)[C@@H]1O [Compound 111, [(2R,3S,4R,5R)-5-[2-chloro-4-(cyclohexyl-amino)pyrrolo[2,3-d]-pyrimidin-7-yl]-3,4-dihydroxy-tetrahydro-furan-2-yl]methoxy-methylphosphonic acid]"

# Continued, molecule first:
Structure (SMILES),IC50 (Human CD73),IC50 [1]
"CN(C)c1nc(C#N)nc2c1ccn2[C@@H]1O[C@H](COCP(=O)(O)O)[C@@H](O)[C@H]1O [Compound 107, [(2R,3S,4R,5R)-5-[2-cyano-4-(dimethyl-amino)pyrrolo[2,3-d]-pyrimidin-7-yl]-3,4-dihydroxy-tetrahydro-furan-2-yl]methoxy-methylphosphonic acid]",10 to 100 nM,10 to 100 nM
"N#Cc1nc(NCc2ccccc2)c2ncn([C@@H]3O[C@H](COCP(=O)(O)O)[C@@H](O)[C@H]3O)c2n1 [Compound 4, [(2R,3S,4R,5R)-5-[6-(benzylamino)-2-cyano-purin-9-yl]-3,4-dihydroxy-tetrahydrofuran-2-yl]methoxymethyl-phosphonic acid]",< 10 nM,100 to 1000 nM
"C[C@H](c1ccccc1)N(C)c1nc(Cl)nc2c1ccn2[C@@H]1O[C@H](COCP(=O)(OCOC(=O)C(C)(C)C)OCOC(=O)C(C)(C)C)[C@@H](O)[C@H]1O [Compound 133, ((((((2R,3S,4R,5R)-5-(2-chloro-4-(methyl((R)-1-phenylethyl)amino)-7H-pyrrolo[2,3-d]pyrimidin-7-yl)-3,4-dihydroxytetrahydrofuran-2-yl)methoxy)methyl)phosphoryl)bis(oxy))bis(methylene) bis(2,2-dimethylpropanoate)]",> 1000 nM,> 1000 nM
"O=P(O)(O)COC[C@H]1O[C@H](c2csc3c(N4CC5CCCC5C4)nc(Cl)nc23)[C@H](O)[C@@H]1O (stereo partly drawn) [Compound 304, [(2R,3S,4R,5R)-5-[4-(3,3a,4,5,6,6a-hexa-hydro-1H-cyclopenta-[c]pyrrol-2-yl)-2-chloro-thieno[3,2-d]-pyrimidin-7-yl]-3,4-dihydroxy-tetrahydro-furan-2-yl]methoxy-methylphosphonic acid]",> 1000 nM,> 1000 nM
"O=P(O)(O)COC[C@H]1O[C@@H](c2csc3c(NC4CCCC4)nc(Cl)nc23)[C@H](O)[C@@H]1O [Compound 305, [(2R,3S,4R,5S)-5-[2-chloro-4-(cyclopentyl-amino)thieno[3,2-d]-pyrimidin-7-yl]-3,4-dihydroxy-tetrahydro-furan-2-yl]methoxy-methylphosphonic acid]",10 to 100 nM,10 to 100 nM
"CC(C)(C)C(=O)OCOP(=O)(COC[C@H]1O[C@@H](n2ccc3c(NC4CCCC4)nc(Cl)nc32)[C@H](O)[C@@H]1O)OCOC(=O)C(C)(C)C [Compound 187, [[(2R,3S,4R,5R)-5-[2-chloro-4-(cyclopentyl-amino)pyrrolo[2,3-d]-pyrimidin-7-yl]-3,4-dihydroxy-tetrahydro-furan-2-yl]methoxy-methyl-(2,2-dimethyl-propanoyloxymethoxy)-phosphoryl]oxymethyl 2,2-dimethylpropanoate]",> 1000 nM,> 1000 nM
